Assay results reported in patent US4740504A, “Antihyperlipidemic amine boranes” (United States Borax & Chemical Corp., priority 1987, dated 1988).
Like-named read-outs stand apart in the source and are kept apart here.

Legend:
[1] = tested on: male CF1 mice; experiment: Hypolipidemic activity in CF1 mice, intraperitoneal dosing (serum cholesterol and triglyceride); format: in vivo; settings: Mus musculus, ip, male CF1 mice; for response vs control in vivo at 20 mg/kg / response vs control in vivo at 5 mg/kg: Table I; for response vs control in vivo at 20 mg/kg: 20 mg./kg./day i.p.; for response vs control in vivo at 8 mg/kg: Table II, 8 mg./kg./day i.p.; for response vs control in vivo at 5 mg/kg: 5 mg./kg./day i.p.
Protocol: For determining hypolipidemic activity, the compounds were suspended in an aqueous 1% carboxymethylcellulose solution and tested at 5 or 20 mg./kg./day administered intraperitoneally to male CF1 mice (~25 g.). On days 9 and 16 blood was collected by tail vein bleeding and the serum separated by centrifugation for three minutes. Serum cholesterol levels were determined by a modified Liebermann-Burchard reaction. Serum triglyceride levels were also determined at 16 days using a Fisher-Hycel Triglyceride Test Kit.
The test was repeated at a dosage of 8 mg./kg./day.
N-n-Octadecyl-N,N-dimethylamine borane was suspended in an aqueous 1% carboxymethylcellulose solution, homogenized, and administered to CF1 male mice (~25 g.) intraperitoneally for 16 days or Sprague Dawley male rats (~350 g.) orally by an intubation needle for 14 days. On days 9 and 14 or 16, blood was obtained by tail vein bleeding and the serum separated by centrifugation for 3 minutes. The serum cholesterol levels were determined by a modification of the Liebermann-Burchard reaction. Serum was also collected on day 14 or 16 and the triglyceride content was determined by a Fisher-Hycel Triglyceride Test Kit.

[2] = dose of 5-20 mg/kg/day; Hall et al., J. Pharm. Sci. 70, 339-341 (1981); cited from earlier work
[3] = tested on: phosphatidate phosphohydrolase; settings: in vivo; Hall et al. 1984; cited from earlier work
[4] = molecular target: T1, ATP dependent citrate lyase (Mus musculus, UniProt Q91V92); settings: in vivo; Hall et al. 1984; cited from earlier work
T1 construct: from tissue
T1 sequence (Q91V92 1-1091): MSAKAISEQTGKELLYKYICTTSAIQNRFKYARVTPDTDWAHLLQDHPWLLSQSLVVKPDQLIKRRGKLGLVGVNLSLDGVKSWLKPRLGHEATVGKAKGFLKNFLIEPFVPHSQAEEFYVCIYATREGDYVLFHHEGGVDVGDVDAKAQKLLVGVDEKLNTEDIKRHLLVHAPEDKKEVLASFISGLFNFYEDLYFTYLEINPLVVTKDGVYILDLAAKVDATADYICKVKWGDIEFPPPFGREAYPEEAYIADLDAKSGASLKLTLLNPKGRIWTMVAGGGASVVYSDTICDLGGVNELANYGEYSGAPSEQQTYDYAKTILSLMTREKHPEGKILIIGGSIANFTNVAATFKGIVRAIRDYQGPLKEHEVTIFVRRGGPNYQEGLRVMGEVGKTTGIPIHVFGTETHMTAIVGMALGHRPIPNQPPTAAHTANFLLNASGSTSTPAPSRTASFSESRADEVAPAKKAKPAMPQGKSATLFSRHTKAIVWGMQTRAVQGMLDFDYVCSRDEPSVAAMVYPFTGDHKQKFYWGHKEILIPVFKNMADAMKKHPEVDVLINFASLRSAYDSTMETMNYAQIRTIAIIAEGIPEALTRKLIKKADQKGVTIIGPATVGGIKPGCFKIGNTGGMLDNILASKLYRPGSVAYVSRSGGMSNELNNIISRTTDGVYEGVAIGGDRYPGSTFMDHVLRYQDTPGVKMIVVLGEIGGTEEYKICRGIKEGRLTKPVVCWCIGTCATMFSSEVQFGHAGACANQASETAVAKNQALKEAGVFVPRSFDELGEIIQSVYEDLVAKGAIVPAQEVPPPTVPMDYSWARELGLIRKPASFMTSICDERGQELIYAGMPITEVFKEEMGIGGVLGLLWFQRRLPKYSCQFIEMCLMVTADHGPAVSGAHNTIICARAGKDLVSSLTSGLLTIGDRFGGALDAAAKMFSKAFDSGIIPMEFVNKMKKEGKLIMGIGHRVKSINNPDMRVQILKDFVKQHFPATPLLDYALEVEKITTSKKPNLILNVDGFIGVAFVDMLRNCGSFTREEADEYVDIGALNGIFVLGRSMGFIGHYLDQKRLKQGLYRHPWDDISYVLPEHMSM

[5] = tested on: mice; settings: cited from earlier work
[6] = molecular target: T2, acetyl CoA synthetase (Mus musculus, UniProt Q9QXG4); settings: in vivo; Hall et al. 1984; cited from earlier work
T2 construct: from tissue
T2 sequence (Q9QXG4 whole entry): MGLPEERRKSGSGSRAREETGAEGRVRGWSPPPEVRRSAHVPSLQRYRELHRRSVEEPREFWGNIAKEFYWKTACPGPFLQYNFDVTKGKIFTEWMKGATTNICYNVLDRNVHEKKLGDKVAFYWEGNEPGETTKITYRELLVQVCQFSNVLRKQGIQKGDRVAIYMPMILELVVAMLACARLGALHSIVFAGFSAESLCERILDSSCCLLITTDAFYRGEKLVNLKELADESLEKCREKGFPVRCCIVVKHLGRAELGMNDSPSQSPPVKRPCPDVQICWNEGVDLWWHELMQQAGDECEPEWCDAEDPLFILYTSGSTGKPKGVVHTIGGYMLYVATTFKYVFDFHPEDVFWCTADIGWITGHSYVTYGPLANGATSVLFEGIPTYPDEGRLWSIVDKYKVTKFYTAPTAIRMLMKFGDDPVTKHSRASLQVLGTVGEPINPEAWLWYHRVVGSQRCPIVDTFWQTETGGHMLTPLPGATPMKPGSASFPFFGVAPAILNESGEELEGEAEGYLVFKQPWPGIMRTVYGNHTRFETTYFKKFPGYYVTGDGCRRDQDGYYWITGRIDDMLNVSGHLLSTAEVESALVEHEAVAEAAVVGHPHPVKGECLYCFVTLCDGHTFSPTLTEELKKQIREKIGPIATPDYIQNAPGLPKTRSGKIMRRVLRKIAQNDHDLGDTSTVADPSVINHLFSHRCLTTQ

[7] = 216 h, day 9, read-out: Serum Cholesterol Day 9
[8] = 384 h, day 16, read-out: Serum Cholesterol Day 16
[9] = 384 h, day 16, read-out: Serum Triglyceride Day 16

[BH3-][N+](C)(C)CCCCCCCC [II, N-octyl-N,N-dimethylamine borane]
response vs control in vivo at 20 mg/kg [1, 7]: 66% | response vs control in vivo at 8 mg/kg [1, 7]: 81% | response vs control in vivo at 20 mg/kg [1, 8]: 69% | response vs control in vivo at 20 mg/kg [1, 9]: 75% | response vs control in vivo at 8 mg/kg [1, 8]: 73% | response vs control in vivo at 8 mg/kg [1, 9]: 74%

[BH3-][N+](C)(C)CCCCCCCCCCC [IV, N--undecyl-N,N--dimethylamine borane]
response vs control in vivo at 5 mg/kg [1, 7]: 68% | response vs control in vivo at 8 mg/kg [1, 7]: 82% | response vs control in vivo at 5 mg/kg [1, 8]: 63% | response vs control in vivo at 5 mg/kg [1, 9]: 82% | response vs control in vivo at 8 mg/kg [1, 8]: 68% | response vs control in vivo at 8 mg/kg [1, 9]: 75%

[BH3-][N+](C)(C)CCCCCCCCCCCC [IX, N--dodecyl-N,N--dimethylamine borane]
response vs control in vivo at 20 mg/kg [1, 7]: 103% | response vs control in vivo at 8 mg/kg [1, 7]: 75% | response vs control in vivo at 20 mg/kg [1, 8]: 97% | response vs control in vivo at 20 mg/kg [1, 9]: 90% | response vs control in vivo at 8 mg/kg [1, 8]: 74% | response vs control in vivo at 8 mg/kg [1, 9]: 94%

[BH3-][N+](C)(C)CCCCCCCCCCCCC [V, N--tridecyl-N,N--dimethylamine borane]
response vs control in vivo at 20 mg/kg [1, 7]: 88% | response vs control in vivo at 8 mg/kg [1, 7]: 86% | response vs control in vivo at 20 mg/kg [1, 8]: 65% | response vs control in vivo at 20 mg/kg [1, 9]: 57% | response vs control in vivo at 8 mg/kg [1, 8]: 84% | response vs control in vivo at 8 mg/kg [1, 9]: 76%

[BH3-][N+](C)(C)CCCCCCCCCCCCCCC [VI, N--pentadecyl-N,N--dimethylamine borane]
response vs control in vivo at 20 mg/kg [1, 7]: 86% | response vs control in vivo at 8 mg/kg [1, 7]: 81% | response vs control in vivo at 20 mg/kg [1, 8]: 64% | response vs control in vivo at 20 mg/kg [1, 9]: 70% | response vs control in vivo at 8 mg/kg [1, 8]: 66% | response vs control in vivo at 8 mg/kg [1, 9]: 77%

[BH3-][N+](C)(C)CCCCCCCCCCCCCC [VII, N--tetradecyl-N,N--dimethylamine borane]
response vs control in vivo at 20 mg/kg [1, 7]: 79% | response vs control in vivo at 8 mg/kg [1, 7]: 80% | response vs control in vivo at 20 mg/kg [1, 8]: 60% | response vs control in vivo at 20 mg/kg [1, 9]: 102% | response vs control in vivo at 8 mg/kg [1, 8]: 67% | response vs control in vivo at 8 mg/kg [1, 9]: 80%

[BH3-][N+](C)(C)CCCCCCCCCCCCCCCC [VIII, N--hexadecyl-N,N--dimethylamine borane]
response vs control in vivo at 20 mg/kg [1, 7]: 74% | response vs control in vivo at 8 mg/kg [1, 7]: 79% | response vs control in vivo at 20 mg/kg [1, 8]: 62% | response vs control in vivo at 20 mg/kg [1, 9]: 72% | response vs control in vivo at 8 mg/kg [1, 8]: 59% | response vs control in vivo at 8 mg/kg [1, 9]: 41%

[BH3-][N+](C)(C)CCCCCC [X, N-- -n-hexyl-N,N--dimethylamine borane]
response vs control in vivo at 20 mg/kg [1, 7]: 66% | response vs control in vivo at 8 mg/kg [1, 7]: 73% | response vs control in vivo at 20 mg/kg [1, 8]: 48% | response vs control in vivo at 20 mg/kg [1, 9]: 71% | response vs control in vivo at 8 mg/kg [1, 8]: 69% | response vs control in vivo at 8 mg/kg [1, 9]: 80%

[BH3-][N+](C)(C)CCCC [XI, N-- -n-butyl-N,N--dimethylamine borane]
response vs control in vivo at 20 mg/kg [1, 7]: 72% | response vs control in vivo at 8 mg/kg [1, 7]: 88% | response vs control in vivo at 20 mg/kg [1, 8]: 62% | response vs control in vivo at 20 mg/kg [1, 9]: 68% | response vs control in vivo at 8 mg/kg [1, 8]: 64% | response vs control in vivo at 8 mg/kg [1, 9]: 72%

[BH3-][N+](C)(C)CCCCCCCCCC [XII, N--decyl-N,N--dimethylamine borane]
response vs control in vivo at 20 mg/kg [1, 7]: 51% | response vs control in vivo at 8 mg/kg [1, 7]: 77% | response vs control in vivo at 20 mg/kg [1, 8]: 46% | response vs control in vivo at 20 mg/kg [1, 9]: 76% | response vs control in vivo at 8 mg/kg [1, 8]: 77% | response vs control in vivo at 8 mg/kg [1, 9]: 79%

[BH3-][N+](C)(C)Cc1ccccc1 [XIII, N--benzyl-N,N--dimethylamine borane]
response vs control in vivo at 20 mg/kg [1, 7]: 95% | response vs control in vivo at 8 mg/kg [1, 7]: 73% | response vs control in vivo at 20 mg/kg [1, 8]: 71% | response vs control in vivo at 20 mg/kg [1, 9]: 60% | response vs control in vivo at 8 mg/kg [1, 8]: 65% | response vs control in vivo at 8 mg/kg [1, 9]: 53%

C[N+](C)(C)[BH2-]C(=O)O [trimethylamine carboxyborane]
hypolipidemic activity (printed: hyperlipidemic) [2]: potent hyperlipidemic activity

tetrakis-μ-(trimethylamine-borane carboxyato)-bis(trimethylamine-carboxyborane)-dicopper (II)
effect on phosphatidate phosphohydrolase [3]: lower | effect on ATP dependent citrate lyase [4]: lower | hypolipidemic activity ([5]; 2.5 mg/kg in mice, Hall et al., J. Pharm. Sci. 73, 973-977 (1984)): potent hypolipidemic agent | cholesterol excretion from the body ([5]; Hall et al. 1984): accelerate cholesterol excretion | effect on acetyl CoA synthetase [6]: lower
